# Target: T1, 5-hydroxytryptamine receptor 2A (Rattus norvegicus, UniProt P14842)
# Assay: Binding affinity against 5-hydroxytryptamine 2A receptor from rat forebrain using [3H]ketanserin as radioligand
# T1 sequence (P14842 whole entry): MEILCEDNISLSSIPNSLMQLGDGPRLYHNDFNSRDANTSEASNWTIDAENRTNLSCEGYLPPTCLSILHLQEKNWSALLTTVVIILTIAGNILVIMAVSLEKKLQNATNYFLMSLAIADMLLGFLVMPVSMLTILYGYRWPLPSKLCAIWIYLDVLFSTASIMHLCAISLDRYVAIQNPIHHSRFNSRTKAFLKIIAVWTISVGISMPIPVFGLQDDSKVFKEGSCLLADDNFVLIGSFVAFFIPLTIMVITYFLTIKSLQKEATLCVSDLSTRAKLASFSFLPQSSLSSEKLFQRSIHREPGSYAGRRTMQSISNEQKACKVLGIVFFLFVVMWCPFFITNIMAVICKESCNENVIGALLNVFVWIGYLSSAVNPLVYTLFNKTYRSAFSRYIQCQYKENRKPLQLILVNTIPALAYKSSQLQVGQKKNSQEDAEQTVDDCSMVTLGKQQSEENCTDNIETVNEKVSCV
row,Ki [nM],SMILES
1,355,CC(=C1CCN(C)CC1)c1ccccc1
2,4,CN1CCC(=C2c3ccccc3Oc3ccccc32)CC1
3,9,CN1CCC(=C2c3ccccc3CCc3ccccc32)CC1
4,13,CN1CCC(=C(c2ccccc2)c2ccccc2)CC1
5,199,CN1CCC(=C2c3ccccc3-c3ccccc32)CC1
6,2.5,CN1CCC(=C2c3ccccc3Sc3ccccc32)CC1 [PIMETHIXENE]

# Target: T1, 5-hydroxytryptamine receptor 2A
# Assay: Binding affinity against 5-hydroxytryptamine 2A receptor expressed NIH3T3 cells using [3H]ketanserin
# Format: cell-based
row,Ki [nM],SMILES
1,65,NCC1c2ccccc2Sc2ccccc21
2,170,NCC1c2ccccc2Oc2ccccc21
3,0.7,CN1CCC(=C2c3ccccc3Cc3ccccc32)CC1
4,112,NCC1c2ccccc2CCc2ccccc21

# Source: ChEMBL document CHEMBL1134201, “Exploring the relationship between binding modes of 9-(aminomethyl)-9,10-dihydroanthracene and cyproheptadine analogues at the 5-HT2A serotonin receptor” (Bioorg Med Chem Lett, 2001)
